Tests used:
[1] = system: mice anticoagulated with rivaroxaban; experiment: In vivo saphenous vein bleeding model in mice anticoagulated with rivaroxaban
Procedure: FIG. 29: In vivo analysis of procoagulant potential of OK-1111 and OKL-1147. Except for controls, animals were treated with rivaroxaban for 4 days and cyclodextrins were administered 5 min prior bleeding assay.
All animal protocols were approved by the Institutional Animal Care and Use Committee of the University of North Carolina. C57BL6/J mice were purchased from Charles Rivers Laboratories (Willmington, Mass.). Bleeding studies were done essentially as previously described Pastoft et al. (Haemophilia 2012; 18:782-8). Mice were anesthetized with isoflurane throughout all procedures. The hair on the ventral side of both hind limbs was removed. The animals were placed supine on a temperature and ECG monitoring board. The paws were gently restrained by looping soft polyethylene tubing around them and attaching the tubing to the ECG board. The skin on the left and right ventral hind limb was incised which exposes a length of the saphenous neurovascular bundle; the bundle was covered with normal saline to prevent drying. To assess haemostasis, the right saphenous vein was transected by piercing it with a 23-G needle followed by a longitudinal incision made in the distal portion of the vessel. Blood was gently wicked away until haemostasis occurred. The clot was then removed to restart bleeding and the blood was again wicked away until haemostasis occurs again. Clot disruption was repeated after every incidence of haemostasis for 30 minutes. Mice were fed chow that contained 0.1 mg rivaroxaban per g of chow. The mice were on this diet for 4 days to allow them to reach a steady state. Cyclodextrins were administered by a tail vein injection 5 minutes before the start of the bleeding assay. Two parameters were measured: 1) the number of times that haemostasis occurs in a 30 minute period, and 2) the time required for each haemostasis.

[2] = system: thrombin generation in pooled normal plasma; experiment: Calibrated Automated Thrombogram thrombin generation assay in pooled normal plasma; format: biochemical, human; details: for procoagulant effect in normal plasma: no anticoagulant, cyclodextrin 100 μM unless otherwise indicated, 1 pM TF
Procedure: (§1) FIGS. 3-8, 12, 14-19 and 22-27: Pooled normal plasma was spiked with cyclodextrins (100 μM, unless otherwise indicated) and anticoagulants. The concentrations of the anticoagulants were 100 ng/ml for dabigatran (A), 100 ng/ml for rivaroxaban (B), 60 ng/ml for apixaban (C), 60 ng/ml for edoxaban (D). The plasmas were subjected to thrombin generation analysis as described in the Materials and Methods section with 1 pM tissue factor (TF) as initiator of coagulation.
(§2) The Calibrated Automated Thrombogram® assays the generation of thrombin in clotting plasma using a microtiter plate reading fluorometer (Fluoroskan Ascent, ThermoLab systems, Helsinki, Finland) and Thrombinoscope® software (Thrombinoscope BV, Maastricht, The Netherlands). The assay was carried out as described by Hemker et al. (Pathofysiol. IIaemost. Thromb. 2003, 33, 4-15), and the Thrombinoscope® manual. Coagulation was triggered by recalcification in the presence of 1 or 5 pM recombinant human tissue factor (Innovin®, Siemens, Marburg, Germany), 4 μM phospholipids, and 417 μM fluorogenic substrate Z-Gly-Gly-Arg-AMC (Bachem, Bubendorf, Switzerland). Fluorescence was monitored using the Fluoroskan Ascent fluorometer (ThermoLabsystems, Helsinki, Finland), and the lag time, peak thrombin, velocity index and area under the curve (ETP) were calculated using the Thrombinoscope® software (Thrombinoscope BV).
Thrombin generation analyses were performed in pooled normal plasma with and without the addition of anticoagulants.

[3] = system: plasma deficient in coagulation factor VIII; experiment: Thrombin generation assay in plasma deficient in coagulation factor VIII; format: biochemical, human
Procedure: FIG. 20: Plasma deficient in coagulation factor VIII was spiked with cyclodextrin OKL-1111 (A), OKL-1180 (B), and OKL-1187 (C) at the indicated concentrations.
as §2

[4] = system: plasma deficient in coagulation factor IX; experiment: Thrombin generation assay in plasma deficient in coagulation factor IX; format: biochemical, human
Procedure: as §2

[5] = system: thrombin generation in pooled normal plasma spiked with anticoagulants; experiment: Thrombin generation assay in pooled normal plasma spiked with anticoagulants; format: biochemical, human; details: for effect on the anticoagulant effect of apixaban: apixaban 60 ng/ml; for effect on the anticoagulant effect of apixaban / effect on the anticoagulant effect of dabigatran / effect on the anticoagulant effect of edoxaban / effect on the anticoagulant effect of rivaroxaban: cyclodextrin 100 μM, 1 pM TF; for effect on the anticoagulant effect of dabigatran: dabigatran 100 ng/ml; for effect on the anticoagulant effect of edoxaban: edoxaban 60 ng/ml; for effect on the anticoagulant effect of rivaroxaban: rivaroxaban 100 ng/ml
Procedure: as §1
FIG. 9: Pooled normal plasma was spiked with OKL-1111 (100 μM, unless otherwise indicated (A)) and anticoagulants (B-E). The concentrations of the anticoagulants were 100 ng/ml for dabigatran (B), 100 ng/ml for rivaroxaban (C), 60 ng/ml for apixaban (D), 60 ng/ml for edoxaban (E). The plasmas were subjected to thrombin generation analysis as described in the Materials and Methods section with 1 pM tissue factor (TF) as initiator of coagulation.
FIG. 10: Pooled normal plasma was spiked with OKL-1111 (100 μM) and anticoagulants (A-F). The concentrations of the anticoagulants were 2 μg/ml for fondaparinux (A), 0.4 U/ml for nadroparin (B), 0.1 U/ml for tinzaparin (C), 0.03 U/ml for unfractionated heparin (UFH) (D), 0.5 U/ml for hirudin (E) and 10 μg/ml for bivalirudin (F). The plasmas were subjected to thrombin generation analysis as described in the Materials and Methods section with 1 pM tissue factor (TF) as initiator of coagulation.
as §2

[6] = system: plasma of a hemophilia A patient containing anti-FVIII antibodies; experiment: Thrombin generation in plasma of a hemophilia A patient with anti-factor VIII antibodies; format: biochemical, human; details: anti-FVIII antibodies 50 BU
Procedure: FIG. 28: Effect of OKL-1111 (A), OKL-1180 (B) and OKL-1187 (C) on coagulation in plasma of a hemophilia A patient with anti-factor VIII antibodies. BU=Bethesda Units.
as §2
The patient had developed antibodies against factor VIII prior to plasma withdrawal. The plasma contained high levels of anti-FVIII antibodies (50 BU).

Compound	procoagulant effect in normal plasma [2]	procoagulant effect in factor VIII deficient plasma [3]	procoagulant activity in factor IX deficient plasma [4]	effect on the anticoagulant effect of apixaban [5]	effect on the anticoagulant effect of dabigatran [5]	effect on the anticoagulant effect of edoxaban [5]	effect on the anticoagulant effect of rivaroxaban [5]	further results
O=C(NC[C@H]1CN(c2ccc(N3CCOCC3=O)cc2)C(=O)O1)c1ccc(Cl)s1 [rivaroxaban]								number of clots in 30 minutes ([1]; mice fed rivaroxaban (0.1 mg per g of chow, 4 days), no cyclodextrin, non-anticoagulated about 20-25): 10-13 clots; bleeding time ([1]; mice fed rivaroxaban versus non-anticoagulated mouse): roughly doubled
OCCCSCC1OC2OC3C(CSCCCO)OC(OC4C(CSCCCO)OC(OC5C(CSCCCO)OC(OC6C(CSCCCO)OC(OC7C(CSCCCO)OC(OC8C(CSCCCO)OC(OC1C(O)C2O)C(O)C8O)C(O)C7O)C(O)C6O)C(O)C5O)C(O)C4O)C(O)C3O (stereo not shown) [OKL-1181]	significant procoagulant activity	procoagulant effects	procoagulant activity					
O=C(O)CCCCCCSCC1OC2OC3C(CSCCCCCCC(=O)O)OC(OC4C(CSCCCCCCC(=O)O)OC(OC5C(CSCCCCCCC(=O)O)OC(OC6C(CSCCCCCCC(=O)O)OC(OC7C(CSCCCCCCC(=O)O)OC(OC8C(CSCCCCCCC(=O)O)OC(OC9C(CSCCCCCCC(=O)O)OC(OC1C(O)C2O)C(O)C9O)C(O)C8O)C(O)C7O)C(O)C6O)C(O)C5O)C(O)C4O)C(O)C3O (stereo not shown) [OKL-1172]	significant procoagulant activity	procoagulant effects	procoagulant activity					
O=C(O)CCCCCSCC1OC2OC3C(CSCCCCCC(=O)O)OC(OC4C(CSCCCCCC(=O)O)OC(OC5C(CSCCCCCC(=O)O)OC(OC6C(CSCCCCCC(=O)O)OC(OC7C(CSCCCCCC(=O)O)OC(OC1C(O)C2O)C(O)C7O)C(O)C6O)C(O)C5O)C(O)C4O)C(O)C3O (stereo not drawn) [OKL-1187, Alpha-per-S—C6-acid]	very strong procoagulant effect	procoagulant effects		strongly antagonized	strongly antagonized	strongly antagonized	strongly antagonized	thrombin generation in hemophilia A patient plasma [6]: concentration-dependently stimulated thrombin generation
OCCCCSCC1OC2OC3C(CSCCCCO)OC(OC4C(CSCCCCO)OC(OC5C(CSCCCCO)OC(OC6C(CSCCCCO)OC(OC7C(CSCCCCO)OC(OC8C(CSCCCCO)OC(OC9C(CSCCCCO)OC(OC1C(O)C2O)C(O)C9O)C(O)C8O)C(O)C7O)C(O)C6O)C(O)C5O)C(O)C4O)C(O)C3O (stereo not shown) [OKL-1174]	strong procoagulant effects	procoagulant effects	procoagulant activity					procoagulant effect in plasma containing anticoagulants (not specified / NOACs) [5]: strong procoagulant effects
O=C(O)CCCCSCC1OC2OC3C(CSCCCCC(=O)O)OC(OC4C(CSCCCCC(=O)O)OC(OC5C(CSCCCCC(=O)O)OC(OC6C(CSCCCCC(=O)O)OC(OC7C(CSCCCCC(=O)O)OC(OC8C(CSCCCCC(=O)O)OC(OC9C(CSCCCCC(=O)O)OC(OC1C(O)C2O)C(O)C9O)C(O)C8O)C(O)C7O)C(O)C6O)C(O)C5O)C(O)C4O)C(O)C3O (stereo not shown) [OKL-1171]	significant procoagulant activity	procoagulant effects						
OCCCCSCC1OC2OC3C(CO)OC(OC4C(CO)OC(OC5C(CO)OC(OC6C(CO)OC(OC7C(CO)OC(OC8C(CO)OC(OC1C(O)C2O)C(O)C8O)C(O)C7O)C(O)C6O)C(O)C5O)C(O)C4O)C(O)C3O (stereo not shown) [OKL-1189]	strong procoagulant activity	procoagulant effects	procoagulant activity	strongly antagonized	strongly antagonized	strongly antagonized	strongly antagonized	
OCCCCSCC1OC2OC3C(CO)OC(OC4C(CO)OC(OC5C(CO)OC(OC6C(CO)OC(OC7C(CO)OC(OC8C(CO)OC(OC9C(CO)OC(OC1C(O)C2O)C(O)C9O)C(O)C8O)C(O)C7O)C(O)C6O)C(O)C5O)C(O)C4O)C(O)C3O (stereo not shown) [OKL-1191]	Strong Procoagulant Activity	procoagulant effects	procoagulant activity	Antagonized	Antagonized	Antagonized	Antagonized	
O=C(O)CCCCCCSCC1OC2OC3C(CO)OC(OC4C(CO)OC(OC5C(CO)OC(OC6C(CO)OC(OC7C(CO)OC(OC8C(CO)OC(OC1C(O)C2O)C(O)C8O)C(O)C7O)C(O)C6O)C(O)C5O)C(O)C4O)C(O)C3O (stereo not shown) [OKL-1188]	strong procoagulant effect	procoagulant effects	procoagulant activity	antagonized	antagonized	antagonized	antagonized	
O=C(O)CCSCC1OC2OC3C(CSCCC(=O)O)OC(OC4C(CSCCC(=O)O)OC(OC5C(CSCCC(=O)O)OC(OC6C(CSCCC(=O)O)OC(OC7C(CSCCC(=O)O)OC(OC8C(CSCCC(=O)O)OC(OC9C(CSCCC(=O)O)OC(OC1C(O)C2O)C(O)C9O)C(O)C8O)C(O)C7O)C(O)C6O)C(O)C5O)C(O)C4O)C(O)C3O (stereo not shown) [OKL-1103, reference compound]	did not show procoagulant activity							procoagulant activity (overview) ([2]; pooled normal plasma with and without the addition of anticoagulants): No; procoagulant effect in plasma containing anticoagulants (not specified / NOACs) [5]: did not show procoagulant activity
O=C(O)CCCCCSCC1OC2OC3C(CO)OC(OC4C(CO)OC(OC5C(CO)OC(OC6C(CO)OC(OC7C(CO)OC(OC1C(O)C2O)C(O)C7O)C(O)C6O)C(O)C5O)C(O)C4O)C(O)C3O (stereo not drawn) [OKL-1186, Alpha-mono-S—C6-acid]	substantial procoagulant effect			antagonized	antagonized	antagonized	antagonized	
NCC1OC2OC3C(CN)OC(OC4C(CN)OC(OC5C(CN)OC(OC6C(CN)OC(OC7C(CN)OC(OC8C(CN)OC(OC9C(CN)OC(OC1C(O)C2O)C(O)C9O)C(O)C8O)C(O)C7O)C(O)C6O)C(O)C5O)C(O)C4O)C(O)C3O (stereo not shown) [OKL-1147, reference compound]	no procoagulant effect							clotting times ([1]; mice fed rivaroxaban for 4 days, cyclodextrin by tail vein injection 5 min before bleeding assay, OKL-1111 dose expected to give 25 μM in plasma): without any significant effect

From patent US10813944B2, “Cyclodextrins as procoagulants” (STICHTING SANQUIN BLOEDVOORZIENING, priority 2016, dated 2020)
